Test results reported in PMC10242655, “Syringin inhibits endogenous volume regulated anion channel currents of HEK293 cells in hypotonic circumstances” (Pharmacology Research & Perspectives, 2023).

Biological target: T1, VRAC (LRRC8A) (Homo sapiens, UniProt Q8IWT6)
T1 construct: endogenous VRAC channels of wild-type HEK293 cells; with at least one other LRRC8 subunit (LRRC8B-E; composition not determined)
T1 sequence (Q8IWT6 1-810): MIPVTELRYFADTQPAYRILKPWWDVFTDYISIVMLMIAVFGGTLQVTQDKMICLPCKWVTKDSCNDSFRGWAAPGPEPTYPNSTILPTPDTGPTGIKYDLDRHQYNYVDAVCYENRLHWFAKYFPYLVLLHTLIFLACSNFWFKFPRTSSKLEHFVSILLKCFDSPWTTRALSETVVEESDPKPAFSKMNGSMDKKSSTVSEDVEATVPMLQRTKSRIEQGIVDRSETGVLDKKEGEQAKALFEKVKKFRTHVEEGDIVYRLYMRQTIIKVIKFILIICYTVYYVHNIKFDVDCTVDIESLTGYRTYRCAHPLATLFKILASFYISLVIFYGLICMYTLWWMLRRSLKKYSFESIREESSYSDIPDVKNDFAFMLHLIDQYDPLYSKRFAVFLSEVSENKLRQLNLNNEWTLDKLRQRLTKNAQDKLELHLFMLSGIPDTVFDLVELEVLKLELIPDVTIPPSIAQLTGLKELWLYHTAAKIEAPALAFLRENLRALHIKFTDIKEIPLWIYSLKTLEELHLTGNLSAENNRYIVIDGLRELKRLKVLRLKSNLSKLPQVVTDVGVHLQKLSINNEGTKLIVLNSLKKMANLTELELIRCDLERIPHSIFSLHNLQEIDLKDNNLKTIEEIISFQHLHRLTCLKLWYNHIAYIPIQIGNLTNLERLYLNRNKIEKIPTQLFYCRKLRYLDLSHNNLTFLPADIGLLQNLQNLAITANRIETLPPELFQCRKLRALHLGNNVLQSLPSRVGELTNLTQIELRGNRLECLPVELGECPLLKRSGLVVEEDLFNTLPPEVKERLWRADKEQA
Test: whole-cell patch clamp of hypotonicity-induced VRAC currents in HEK293; I/I0 […] at […]
Assay type: cell-based

COc1cc(/C=C/CO)cc(OC)c1O[C@@H]1O[C@H](CO)[C@@H](O)[C@H](O)[C@H]1O [Syringin, 4‐[(1E)‐3‐hydroxyprop‐1‐en‐1‐yl]‐2,6‐dimethoxyphenyl β‐D‐glucopyranoside]
whole-cell patch clamp of hypotonicity-induced VRAC currents in HEK293; I/I0 0.6: I/I0 0.61 ± 0.02 at 100 μM
